Here are results for 13 molecules from patent US7812022B2 (GlaxoSmithKline LLC, priority 2004, dated 2010).

The subject of test [1] is BT474 and HN5 tumor cell lines. The test is described as follows: Methylene blue growth inhibition assay (cellular Method A). In kind it is cell-based, Human. Particulars: Homo sapiens, BT-474, 72 h, 3 days, read-out: Activity (Method): growth inhibition IC50 class. The procedure:
Human breast (BT474) and head and neck (HN5) were cultured in low glucose DMEM (Life Technologies 12320-032) containing 10% fetal bovine serum (FBS). Human colon tumor cells (Colo205) were cultured in DMEM (Invitrogen, 10564) containing 10% FBS. The SV40 transformed human mammary epithelial cell line HB4a was transfected with either human H-ras cDNA (HB4a r4.2) or the human c-ErbB2 cDNA (HB4a c5.2). The HB4a clones were cultured in RPMI containing 10% FBS, insulin (5 g/mL), hydrocortisone (5 g/mL), supplemented with the selection agent hygromycin B (50 g/mL). All lines were grown in a humidified incubator at 37° C. in 95% air, 5% CO2. Cells were harvested using trypsin/EDTA, counted using a haemocytometer, and plated in 100 microliters of the appropriate media, at the following densities, in a 96-well tissue culture plate (Falcon 3075): BT474 10,000 cells/well, HN5 3,000 cells/well. The next day, compounds were diluted in DMEM containing […] gentamicin, at twice the final required concentration, from 10 mM stock solutions in DMSO. 100 microliters/well of these dilutions were added to the 100 microliters of media currently on the cell plates. Medium containing 0.6% DMSO was added to control wells. Compounds diluted in DMEM were added to all cell lines. The final concentration of DMSO in all wells was 0.3%. Cells were returned to the incubator (37° C., 10% CO2) for 3 days. Medium was then removed by aspiration. Cell biomass was estimated by staining cells with 90 microliters per well methylene blue (Sigma M9140, 0.5% in 1:1 ethanol:water), and incubation at rt for at least 30 minutes. Stain was removed, and the plates rinsed by immersion in deionized water and air-dried. To release stain from the cells 100 microliters of solubilization solution was added (1% N-lauroyl sarcosine, Sodium salt, Sigma L5125, in PBS), and plates were shaken gently for about 30 minutes. Optical density at 620 nm was measured on a microplate reader. Percent inhibition of cell growth was calculated relative to vehicle treated control wells. Concentration of compound that inhibits 50% of control cell growth (IC50) was interpolated using nonlinear regression (Levenberg-Marquardt) and the equation, y=Vmax*(1−(x/(K+x)))+Y2, where “K” was equal to the IC50. Method B: Celltiter Glo® Growth Inhibition Assays

The target in another test is T1, ErbB2 or EGFR.
T1 construct: enzymes purified from a baculovirus expression system; Reagent production was conducted essentially as described in Brignola, P. S., et al, (2002) J. Biol. Chem. 277(2): 1576-1585
The test is described as follows: ErbB family substrate phosphorylation enzyme assay (HTRF), Method A or Method B. Format: biochemical. The procedure:
Compounds of the present invention were tested for EGFR, ErbB-2, and ErbB-4 protein tyrosine kinase inhibitory activity in substrate phosphorylation assays using enzymes purified from a baculovirus expression system. Reagent production was conducted essentially as described in Brignola, P. S., et al, (2002) J. Biol. Chem. 277(2): 1576-1585.
The method measures the ability of the isolated enzyme to catalyse the transfer of the gamma-phosphate from ATP onto the tyrosine residue of a biotinylated synthetic peptide referenced “Peptide C” in Brignola, P. S., et al, (2002) J. Biol. Chem. 277(2):1576-1585. The extent of tyrosine phosphorylation was measured using an anti-phosphotyrosine antibody, and quantified by homogenous time-resolved fluorescence (HTRF).
Reactions were performed in black 384-well polystyrene flat-bottom plates in a final volume of 20 ul. Assays were performed by adding 10 μl of each of the following solutions, substrate Mix and enzyme mix: The Substrate mix contained 100 mM 3-[N-morpholino]propanesulfonic acid (MOPS) (pH 7.5), 2 mM MnCl2, 20 μM ATP, 0.01% Tween-20, 0.1 mg/mL (BSA), 0.8 uM peptide substrate, and 1 mM dithiothreitol. The enzyme mix contained 100 mM MOPS (pH7.5); 0.01% Tween-20; 0.1 mg/mL BSA, and either 0.8 nM EGFR, 10 nM ErbB2, or 1 nM ErbB4
During the course of these studies, two separate methods have been used to measure the potency of compounds. In Method A, the substrate mix was added to the compound plates first, then the reaction was started by adding the enzyme mix. In Method B, the enzyme mix was added to the compound plates and the plates were incubated at 20° C. for 1 hour. The reactions were then started by adding the substrate mix.
After initiating the reaction with either method describe above, the reactions were allowed to proceed for 90 minutes at 20° C. The reactions were then terminated by the addition of 20 μl 100 mM EDTA to each well. 40 μl/well of HTRF detection mix were added to the assay plates. The final concentrations of the detection reagents were: 100 mM HEPES (pH7.5), 0.1 mg/mL BSA, 15 nM streptavidin-labeled allophycocyanin (PerkinElmer), and 1 nM europium-labeled anti-phosphotyrosine antibody (PerkinElmer). Assay plates were left unsealed and were counted in a Wallac Multilabel Counter 1420 (PerkinElmer).
Compounds under analysis were dissolved in Me2SO to 1.0 mM and serially diluted 1 to 3 with Me2SO through twelve dilutions. 1 μl of each concentration was transferred to the corresponding well of an assay plate. This creates a final compound concentration range from 0.00027 to 47.6 μM.
The data for dose responses were plotted as % Inhibition calculated with the data reduction formula 100*(1−(U1−C2)/(C1−C2)) versus concentration of compound where U is the unknown value, C1 is the average control value obtained for 4.76% DMSO, and C2 is the average control value obtained for 0.035 M EDTA. Data were fitted with a curve described by: y=((Vmax*x)/(K+x))+Y^2 where Vmax is the upper asymptote, Y2 is the Y intercept, and K is the IC50. The results for each compound were recorded as pIC50s, calculated as follows: pIC50=−Log 10(K)
(In general: In TR-FRET formats the signal depends on donor and acceptor labels being close together.)

The mark [2] stands for this setting: Method A: substrate mix added first, reaction started with enzyme mix.
Setting [3] is: Method B: enzyme mix pre-incubated with compound 1 hour at 20° C., started with substrate mix.

Structures are written as SMILES.

As to `O=C(Nc1cccc(-c2nn3ccccc3c2-c2ccnc(Nc3cccc(N4CCCC4=O)c3)n2)c1)c1cc(F)ccc1F` [Example 49, 2,5-Difluoro-N-{3-[3-(2-{[3-(2-oxo-1-pyrrolidinyl)phenyl]amino}-4-pyrimidinyl)pyrazolo[1,5-a]pyridin-2-yl]phenyl}benzamide], the half-maximal inhibitory concentration (IC50) (in general, the concentration that gives 50% inhibition) in test [1] lay within 100 to 1000 nM. Moreover, on ErbB2 or EGFR (setting [2]), the “Activity (Method): pIC50 class against ErbB2 or EGFR” value (“Activity (Method): pIC50 class” below) is listed as “+++ (A) (at least one pIC50 measurement of greater than 7 against either ErbB2 or EGFR)”.

For the molecule `COc1cccc(C(=S)Nc2cccc(-c3nn4ccccc4c3-c3ccnc(Nc4ccc5c(c4)OCCO5)n3)c2)c1` [Example 9, N-(3-{3-[2-(2,3-Dihydro-benzo[1,4-]dioxin-6-ylamino)-pyrimidin-4-yl]-pyrazolo[1,5-a]pyridin-2-yl}-phenyl)-3-methoxy-thiobenzamide], in test [1], the IC50 was in the range of 100 to 1000 nM. The “Activity (Method): pIC50 class” value on ErbB2 or EGFR (setting [2]) is given as “++ (A) (at least one pIC50 measurement greater than 6 against either ErbB2 or EGFR but no measurement greater than pIC50 of 7)”.

For `Nc1ccc(C(=O)Nc2cccc(-c3nn4ccccc4c3-c3ccnc(Nc4ccccc4)n3)c2)cc1` [Example 144, 4-Amino-N-(3-{3-[2-(phenylamino)-4-pyrimidinyl]pyrazolo[1,5-a]pyridin-2-yl}phenyl)benzamide], the 50% inhibitory concentration (IC50) in test [1] fell in the range of 100 to 1000 nM. At ErbB2 or EGFR (setting [2]), the “Activity (Method): pIC50 class” value is “+++ (A) (at least one pIC50 measurement of greater than 7 against either ErbB2 or EGFR)”.

Regarding `O=C(Nc1cccc(-c2nn3ccccc3c2-c2ccnc(Nc3ccc(N4CCCC4)c(F)c3)n2)c1)c1c(F)cccc1F` [Example 148, 2,6-Difluoro-N-{3-[3-(2-{[3-fluoro-4-(1-pyrrolidinyl)-phenyl]amino}-4-pyrimidinyl)pyrazolo[1,5-a]pyridin-2-yl]phenyl}benzamide], the IC50 in test [1] is less than 100 nM. The “Activity (Method): pIC50 class” value on ErbB2 or EGFR (setting [2]) is reported as “+++ (A) (at least one pIC50 measurement of greater than 7 against either ErbB2 or EGFR)”.

Turning to `Cc1cccc(C(=O)Nc2cccc(-c3nn4ccccc4c3-c3ccnc(Nc4ccccc4)n3)c2)c1` [Example 141, 3-Methyl-N-(3-{3-[2-(phenylamino)-4-pyrimidinyl]pyrazolo[1,5-a]pyridin-2-yl}phenyl)benzamide], the half-maximal inhibitory concentration (IC50) in test [1] lay within 100 to 1000 nM. At ErbB2 or EGFR (setting [2]), the “Activity (Method): pIC50 class” value was “++ (A) (at least one pIC50 measurement greater than 6 against either ErbB2 or EGFR but no measurement greater than pIC50 of 7)”.

As for `O=C(Nc1cccc(-c2nn3ccccc3c2-c2ccnc(Nc3ccc(Cl)cc3)n2)c1)c1c(F)cccc1F` [Example 92], in test [1], the IC50 lay in the range of 100 to 1000 nM. Besides, at ErbB2 or EGFR (setting [2]), the “Activity (Method): pIC50 class” value is reported as “++ (A) (at least one pIC50 measurement greater than 6 against either ErbB2 or EGFR but no measurement greater than pIC50 of 7)”.

In the case of `COc1ccc(Nc2nccc(-c3c(-c4cccc(NC(=O)c5c(F)cccc5F)c4)nn4c(C)cccc34)n2)cc1F` [Example 157, 2,6-Difluoro-N-[3-(3-{2-[(3-fluoro-4-methoxy-phenyl)amino]pyrimidin-4-yl}-7-methylpyrazolo[1,5-a]pyridin-2-yl)phenyl]benzamide], the half-maximal inhibitory concentration (IC50) in test [1] was 100 to 1000 nM. On ErbB2 or EGFR (setting [2]), the “Activity (Method): pIC50 class” value is listed as “++ (A) (at least one pIC50 measurement greater than 6 against either ErbB2 or EGFR but no measurement greater than pIC50 of 7)”.

Consider `NS(=O)(=O)c1ccc(Nc2nccc(-c3c(-c4cccc(NC(=O)c5c(F)cccc5F)c4)nn4ccccc34)n2)cc1` [Example 32, N-{3-[3-(2-{[4-(aminosulfonyl)phenyl]amino}-4-pyrimidinyl)pyrazolo[1,5-a]pyridin-2-yl]phenyl}-2,6-difluorobenzamide], for which the IC50 in test [1] is less than 100 nM. The “Activity (Method): pIC50 class” value at ErbB2 or EGFR (setting [3]) is listed as “+++ (B) (at least one pIC50 measurement of greater than 7 against either ErbB2 or EGFR)”.

For `O=C(Nc1cccc(-c2nn3ccccc3c2-c2ccnc(Nc3cccc(F)c3)n2)c1)c1c(F)cccc1C(F)(F)F` [Example 13, 2-Fluoro-N-(3-{3-[2-(3-fluoro-phenylamino)-pyrimidin-4-yl]-pyrazolo[1,5-a]pyridin-2-yl}-phenyl)-6-trifluoromethyl-benzamide], in test [1], the IC50 was less than 100 nM. On ErbB2 or EGFR (setting [3]), the “Activity (Method): pIC50 class” value was “+++ (B) (at least one pIC50 measurement of greater than 7 against either ErbB2 or EGFR)”.

In the case of `O=C(Nc1cccc(-c2nn3ccccc3c2-c2ccnc(Nc3cccc(F)c3)n2)c1)c1cccc(F)c1` [Example 17, 3-Fluoro-N-(3-{3-[2-(3-fluoro-phenylamino)-pyrimidin-4-yl]-pyrazolo[1,5-a]pyridin-2-yl}-phenyl)-benzamide], the half-inhibitory concentration (IC50) in test [1] lay in the range of 100 to 1000 nM. Moreover, the “Activity (Method): pIC50 class” value at ErbB2 or EGFR (setting [3]) was “+++ (B) (at least one pIC50 measurement of greater than 7 against either ErbB2 or EGFR)”.

Turning to `O=C(Nc1cccc(-c2nn3ccccc3c2-c2ccnc(Nc3ccc4cnccc4c3)n2)c1)c1c(F)cccc1F` [Example 65, 2,6-Difluoro-N-(3-{3-[2-(6-isoquinolinylamino)-4-pyrimidinyl]pyrazolo[1,5-a]pyridin-2-yl}phenyl)benzamide], the IC50 in test [1] is more than 1000 nM. Besides, the “Activity (Method): pIC50 class” value at ErbB2 or EGFR (setting [3]) is recorded as “++ (B) (at least one pIC50 measurement greater than 6 against either ErbB2 or EGFR but no measurement greater than pIC50 of 7)”.

For the molecule `Cn1cccc1C(=S)Nc1cccc(-c2nn3ccccc3c2-c2ccnc(Nc3ccc4c(c3)OCCO4)n2)c1` [Example 10, 1-Methyl-1H-pyrrole-2-carbothioic acid (3-{3-[2-(2,3-dihydro-benzo[1,4]dioxin-6-ylamino)-pyrimidin-4-yl]pyrazolo[1,5-a]pyridin-2-yl}-phenyl)-amide], the IC50 in test [1] lay within 100 to 1000 nM. Moreover, on ErbB2 or EGFR (setting [2]), the “Activity (Method): pIC50 class” value is given as “++ (A) (at least one pIC50 measurement greater than 6 against either ErbB2 or EGFR but no measurement greater than pIC50 of 7)”.

For the molecule `O=C(Nc1cccc(-c2nn3ccccc3c2-c2ccnc(Nc3cccc(F)c3)n2)c1)c1ccccc1` [Example 146], the half-inhibitory concentration (IC50) in test [1] was in the range of 100 to 1000 nM. Besides, the “Activity (Method): pIC50 class” value on ErbB2 or EGFR (setting [3]) is listed as “+++ (B) (at least one pIC50 measurement of greater than 7 against either ErbB2 or EGFR)”.
